In article PMC7857637, “The three NADH dehydrogenases of Pseudomonas aeruginosa: Their roles in energy metabolism and links to virulence” (PLoS ONE, 2021):

Molecular target: T1, NQR complex (pHERD28C-NQR) (Pseudomonas aeruginosa, UniProt Q9HZK7+Q9HZK8)
T1 construct: gene nqrB; complete nqr operon on pHERD28C plasmid, C-terminal His tag on NqrF, expressed in P. aeruginosa, partially purified on Ni-NTA; with Na(+)-translocating NADH-quinone reductase subunit A; Na(+)-translocating NADH-quinone reductase subunit D; Na(+)-translocating NADH-quinone reductase subunit E; Na(+)-translocating NADH-quinone reductase subunit F
T1 sequence (Q9HZK7 whole entry): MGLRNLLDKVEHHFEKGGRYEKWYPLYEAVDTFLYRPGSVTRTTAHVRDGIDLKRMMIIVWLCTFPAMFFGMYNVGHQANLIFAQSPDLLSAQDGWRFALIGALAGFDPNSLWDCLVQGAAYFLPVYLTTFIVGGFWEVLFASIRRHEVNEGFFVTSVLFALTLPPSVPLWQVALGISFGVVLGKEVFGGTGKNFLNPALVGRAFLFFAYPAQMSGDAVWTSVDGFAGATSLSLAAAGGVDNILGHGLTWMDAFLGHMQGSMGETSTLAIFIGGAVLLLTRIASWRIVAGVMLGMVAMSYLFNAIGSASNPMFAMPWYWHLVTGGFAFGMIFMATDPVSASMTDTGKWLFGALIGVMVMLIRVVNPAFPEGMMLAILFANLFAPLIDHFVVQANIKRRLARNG
T1 sequence (Q9HZK8 whole entry): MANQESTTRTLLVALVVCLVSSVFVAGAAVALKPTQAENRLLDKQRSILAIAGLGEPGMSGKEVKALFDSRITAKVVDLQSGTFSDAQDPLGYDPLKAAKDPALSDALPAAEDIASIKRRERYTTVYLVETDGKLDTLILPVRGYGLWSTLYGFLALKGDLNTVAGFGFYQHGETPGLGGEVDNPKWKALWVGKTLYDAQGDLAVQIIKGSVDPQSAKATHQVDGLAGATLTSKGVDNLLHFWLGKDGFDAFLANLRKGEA
T1 sequence (Q9HZL1 whole entry partner): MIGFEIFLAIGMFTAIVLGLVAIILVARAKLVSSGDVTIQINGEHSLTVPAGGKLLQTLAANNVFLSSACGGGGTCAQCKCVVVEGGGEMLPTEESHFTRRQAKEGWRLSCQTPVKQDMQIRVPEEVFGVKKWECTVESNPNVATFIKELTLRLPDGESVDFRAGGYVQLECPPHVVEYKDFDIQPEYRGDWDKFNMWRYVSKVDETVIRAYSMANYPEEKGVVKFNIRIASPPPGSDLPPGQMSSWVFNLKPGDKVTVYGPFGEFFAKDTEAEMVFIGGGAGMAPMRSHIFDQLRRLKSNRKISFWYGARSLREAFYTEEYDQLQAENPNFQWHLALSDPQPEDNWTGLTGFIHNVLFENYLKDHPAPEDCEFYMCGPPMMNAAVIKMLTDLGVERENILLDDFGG
T1 sequence (Q9HZK6 whole entry partner): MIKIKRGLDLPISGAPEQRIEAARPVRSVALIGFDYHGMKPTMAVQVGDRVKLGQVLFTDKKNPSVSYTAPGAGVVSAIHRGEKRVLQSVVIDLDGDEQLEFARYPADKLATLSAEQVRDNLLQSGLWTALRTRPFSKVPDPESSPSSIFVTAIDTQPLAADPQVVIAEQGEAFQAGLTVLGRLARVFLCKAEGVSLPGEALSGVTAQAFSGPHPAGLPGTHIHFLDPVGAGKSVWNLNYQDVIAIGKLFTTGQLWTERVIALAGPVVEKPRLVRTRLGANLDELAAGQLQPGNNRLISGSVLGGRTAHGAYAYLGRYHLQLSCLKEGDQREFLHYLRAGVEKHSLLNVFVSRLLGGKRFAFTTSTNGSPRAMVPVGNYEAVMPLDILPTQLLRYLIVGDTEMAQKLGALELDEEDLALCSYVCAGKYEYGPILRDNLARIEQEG
T1 sequence (Q9HZK9 whole entry partner): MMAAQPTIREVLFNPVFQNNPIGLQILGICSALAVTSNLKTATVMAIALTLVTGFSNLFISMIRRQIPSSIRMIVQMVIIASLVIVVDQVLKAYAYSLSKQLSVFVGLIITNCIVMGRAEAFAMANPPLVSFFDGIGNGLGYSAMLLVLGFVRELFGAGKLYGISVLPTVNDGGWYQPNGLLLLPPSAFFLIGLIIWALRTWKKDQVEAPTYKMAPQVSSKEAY
T1 sequence (Q9HZL0 whole entry partner): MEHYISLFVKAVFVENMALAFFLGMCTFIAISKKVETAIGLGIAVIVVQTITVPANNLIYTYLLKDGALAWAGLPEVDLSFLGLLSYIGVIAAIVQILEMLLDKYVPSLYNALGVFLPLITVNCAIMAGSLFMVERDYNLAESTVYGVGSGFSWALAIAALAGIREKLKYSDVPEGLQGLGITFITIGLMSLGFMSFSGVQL
Assay: in-gel flavin fluorescence of the partially purified complex (SDS gel under UV)
Assay type: binding
Settings: covalent (retained on SDS gel); bands of subunits NqrB and NqrC

SMILES: Cc1cc2nc3c(=O)[nH]c(=O)nc-3n(C[C@H](O)[C@H](O)[C@H](O)COP(=O)(O)O)c2cc1C [FMN]
- in-gel flavin fluorescence of the partially purified complex (SDS gel under UV): two fluorescent bands characteristic of the FMN cofactors of the NqrB and NqrC subunits
